Test results published in patent US7049293B2, “Peptide and osteogenetic accelerator” (Kyocera Corporation, priority 1998, dated 2006).
Residues, ends and D or L forms follow the SMILES beside them.

Legend:
[1] = test system: rat bone marrow cells; assay: Cytotoxicity test in vitro, rat bone marrow cells (colony count, Giemsa staining); format: cell-based, rats (Lewis); conditions: 30 μg/ml, seven days
Text: Femurs were aseptically taken out of six-week-old female rats (Lewis, purchased from Nippon SLC). Both ends of the femurs were cut off. Then bone marrow was extruded into centrifugal tubes by means of Eagle's MEM containing 10% of fetal bovine serum using an injection syringe with a 21 G injection needle. The bone marrow cells were sufficiently dispersed with a pipette and filtered through a 40 μm filter to remove agglutinations. The resulting bone marrow cells were centrifuged with Eagle's MEM containing 10% of fetal bovine serum three times (1200 rpm, 5 min.×3), and then the number of cells was counted. The bone marrow cells were diluted with Alpha MEM containing 10% of fetal bovine serum so that relatively large bone marrow cells were present in a concentration of 10^6/ml. The dilution was pipetted 10 ml in each culture flask having a culture area of 25 cm^2 and incubated at 37° C. in the presence of 5% CO2. […]
Twenty-four hours after the incubation was started, culture medium was removed and Alpha MEM containing 10% of fetal bovine serum and 30 μg/ml of the peptide described in Example 1 was added to the cells under culture. […] After seven days, the number of formed colonies of bone marrow cells was counted using Giemsa staining. […]

[2] = test system: C3H10T1/2 cells; assay: Cytotoxicity test in vitro, C3H10T1/2 cells (protein concentration, BCA); format: cell-based; conditions: 100 μg/ml, six days
Procedure: C3H10T1/2 cells were dispersed in Eagle's MEM containing 10% fetal bovine serum, pipetted on a 96-well culture plate, 3750 cells per well, and incubated at 37° C. in the presence of 5% CO2. Into the wells, a PBS solution of the peptide described in Example 1 was added so that the resulting concentration became 100 μg/ml, followed by incubation under the same conditions for six days. Then the culture medium was removed and a cytolytic solution (0.1M Tris-HCl buffer containing 1% Triton X-100, pH 9) was added to dissolve cells. Then the concentration of protein was determined using BCA reagent (produced by Funakoshi Kabushiki Kaisha).

[3] = test system: rats; assay: Acute toxicity test on rats; format: in vivo, rats (Lewis); conditions: 500 μg intraperitoneally three times in a week
Procedure: A PBS solution of 500 μg of the peptide described in Example 1 was intraperitoneally administered to six-week-old female rats (Lewis, purchased from Nippon SLC) three times in a week. […] Neither were the rats observed to have a poor coat of fur or any abnormal behavior during the test.

CC[C@H](C)[C@H](NC(=O)[C@H](C)NC(=O)[C@H](CO)NC(=O)[C@H](CC(C)C)NC(=O)[C@H](CCC(=O)O)NC(=O)[C@@H](NC(=O)[C@@H]1CCCN1C(=O)[C@@H](NC(=O)[C@H](CS)NC(=O)[C@H](CS)NC(=O)[C@H](C)NC(=O)[C@H](CCCCN)NC(=O)[C@@H]1CCCN1C(=O)[C@@H](NC(=O)[C@H](CCCCN)NC(=O)[C@H](CO)NC(=O)[C@H](CC(N)=O)NC(=O)[C@@H](NC(=O)[C@H](CO)NC(=O)[C@@H](N)CC(N)=O)C(C)C)[C@@H](C)CC)C(C)C)[C@@H](C)O)C(=O)O [Example 1] (H-NSVNSKIPKACCVPTELSAI-OH)
number of formed colonies of bone marrow cells ([1]; average per flask, PBS control 89): 101
cytotoxicity (conclusion) ([1]; rat bone marrow cells): did not have cytotoxicity
cytotoxicity (conclusion) ([2]; C3H10T1/2 cells): did not have cytotoxicity
concentration of protein ([2]; n=12, PBS control 0.07±0.03): 120 ± 20 µg/mL
increase in weight ([3]; after a week, n=6, PBS control 23±5): 25 ± 6 g
acute toxicity (conclusion) ([3]; no poor coat of fur or abnormal behavior): no significant acute toxicity
